From PubChem BioAssay AID1963860 (Molecular Pharmacology Branch, DTP, NCI, 2024)
pIC50: −log10 of the molar value.

Test system: CN0375-F725-PDC KRAS spheroid viability
Assay: Anticancer human tumor CN0375-F725-PDC patient-derived colon carcinoma cell line growth inhibition [KRAS2]
Details: spheroids with HUVEC and MSC; for pIC50: curve of first compound; for viability, T/C: stronger effect = lower value
Summary of the method: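 KRAS-mutant tumor cells were grown as spheroids with HUVEC endothelial cells and human MSCs as stroma. Targeted agents were tested alone and with KRAS pathway inhibitors. Doses started at or near clinical Cmax, or 10 microM, descending half-log.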

[1] = second compound 0.1 µM, first compound 0.0316 µM
[2] = second compound 0.1 µM, first compound 0.1 µM
[3] = second compound 0.316 µM, first compound 0.0316 µM
[4] = second compound 0.316 µM, first compound 0.1 µM
[5] = second compound 1 µM, first compound 0.0316 µM
[6] = second compound 1 µM, first compound 0.1 µM
[7] = second compound 3.16 µM, first compound 0.0316 µM
[8] = second compound 3.16 µM, first compound 0.1 µM
[9] = second compound 10 µM, first compound 0.0316 µM
[10] = second compound 10 µM, first compound 0.1 µM
[11] = second compound 0.1 µM, first compound 0.316 µM
[12] = second compound 0.1 µM, first compound 1 µM
[13] = second compound 0.1 µM, first compound 3.16 µM
[14] = second compound 0.1 µM, first compound 10 µM
[15] = second compound 0.316 µM, first compound 0.316 µM
[16] = second compound 0.316 µM, first compound 1 µM
[17] = second compound 0.316 µM, first compound 3.16 µM
[18] = second compound 0.316 µM, first compound 10 µM
[19] = second compound 1 µM, first compound 0.316 µM
[20] = second compound 1 µM, first compound 1 µM
[21] = second compound 1 µM, first compound 3.16 µM
[22] = second compound 1 µM, first compound 10 µM
[23] = second compound 3.16 µM, first compound 0.316 µM
[24] = second compound 3.16 µM, first compound 1 µM
[25] = second compound 3.16 µM, first compound 3.16 µM
[26] = second compound 3.16 µM, first compound 10 µM
[27] = second compound 10 µM, first compound 0.316 µM
[28] = second compound 10 µM, first compound 1 µM
[29] = second compound 10 µM, first compound 3.16 µM
[30] = second compound 10 µM, first compound 10 µM
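Also: spheroids exposed to agents for 7 days.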

SMILES | pIC50 (second compound 0.1 µM) | pIC50 (second compound 0.316 µM) | pIC50 (second compound 1 µM) | pIC50 (second compound 3.16 µM) | pIC50 (second compound 10 µM) | viability, T/C [1] [%] | viability, T/C [2] [%] | viability, T/C [3] [%] | viability, T/C [4] [%] | viability, T/C [5] [%] | viability, T/C [6] [%] | viability, T/C [7] [%] | viability, T/C [8] [%] | viability, T/C [9] [%] | viability, T/C [10] [%] | viability, T/C [11] [%] | viability, T/C [12] [%] | viability, T/C [13] [%] | viability, T/C [14] [%] | viability, T/C [15] [%] | other results
CN(C)C/C=C/C(=O)Nc1cc2c(Nc3ccc(F)c(Cl)c3)ncnc2cc1O[C@H]1CCOC1 + COc1cc2nc(C)nc(NC(C)c3cc(N)cc(C(F)(F)F)c3)c2cc1OC1CCOC1 | < 7.00 | < 7.00 | < 7.00 | < 7.00 | < 7.00 | 84.8 | 77.9 | 78.1 | 79.3 | 81.6 | 78.1 | 66.5 | 65.8 | 60.6 | 63.7 | – | – | – | – | – | viability, T/C (second compound 0.1 µM, first compound 0.000316 µM): 102%; viability, T/C (second compound 0.1 µM, first compound 0.001 µM): 92.6%; viability, T/C (second compound 0.1 µM, first compound 0.00316 µM): 85.7%; viability, T/C (second compound 0.1 µM, first compound 0.01 µM): 83.7%; viability, T/C (second compound 0.316 µM, first compound 0.000316 µM): 96%; viability, T/C (second compound 0.316 µM, first compound 0.001 µM): 92.5%; viability, T/C (second compound 0.316 µM, first compound 0.00316 µM): 86.4%; viability, T/C (second compound 0.316 µM, first compound 0.01 µM): 85.7%; viability, T/C (second compound 1 µM, first compound 0.000316 µM): 91.9%; viability, T/C (second compound 1 µM, first compound 0.001 µM): 94.6%; viability, T/C (second compound 1 µM, first compound 0.00316 µM): 87.3%; viability, T/C (second compound 1 µM, first compound 0.01 µM): 82.7%; viability, T/C (second compound 3.16 µM, first compound 0.000316 µM): 77.3%; viability, T/C (second compound 3.16 µM, first compound 0.001 µM): 71.5%; viability, T/C (second compound 3.16 µM, first compound 0.00316 µM): 71.8%; viability, T/C (second compound 3.16 µM, first compound 0.01 µM): 66.1%; viability, T/C (second compound 10 µM, first compound 0.000316 µM): 65.5%; viability, T/C (second compound 10 µM, first compound 0.001 µM): 70.1%; viability, T/C (second compound 10 µM, first compound 0.00316 µM): 68.2%; viability, T/C (second compound 10 µM, first compound 0.01 µM): 47%
COC(=O)c1ccc2c(C(=Nc3ccc(N(C)C(=O)CN4CCN(C)CC4)cc3)c3ccccc3)c(O)[nH]c2c1 + COc1cc2nc(C)nc(NC(C)c3cc(N)cc(C(F)(F)F)c3)c2cc1OC1CCOC1 | 5.67 | 5.45 | 5.62 | 5.84 | > 7.50 | 97 | 102 | 97.9 | 99.5 | 91.8 | 91.5 | 85.8 | 78.8 | 18.3 | 18.9 | 91.3 | 87.1 | 31.2 | 0.21 | 86.3 | viability, T/C [16]: 85.3%; viability, T/C [17]: 55.4%; viability, T/C [18]: 0.5%; viability, T/C [19]: 85%; viability, T/C [20]: 77%; viability, T/C [21]: 41.6%; viability, T/C [22]: 0.19%; viability, T/C [23]: 80.6%; viability, T/C [24]: 66.8%; viability, T/C [25]: 16.1%; viability, T/C [26]: 0.48%; viability, T/C [27]: 13.1%; viability, T/C [28]: 9.52%; viability, T/C [29]: 1.91%; viability, T/C [30]: 0.15%
O=C(c1cc(Cc2n[nH]c(=O)c3ccccc23)ccc1F)N1CCN(C(=O)C2CC2)CC1 + COc1cc2nc(C)nc(NC(C)c3cc(N)cc(C(F)(F)F)c3)c2cc1OC1CCOC1 | < 5.00 | < 5.00 | < 5.00 | < 5.00 | < 5.00 | 105 | 106 | 102 | 103 | 111 | 107 | 92.8 | 95.4 | 82.2 | 81.4 | 98.4 | 107 | 98.2 | 106 | 97.8 | viability, T/C [16]: 98.8%; viability, T/C [17]: 98.8%; viability, T/C [18]: 93.2%; viability, T/C [19]: 99%; viability, T/C [20]: 97.8%; viability, T/C [21]: 107%; viability, T/C [22]: 93.5%; viability, T/C [23]: 85.8%; viability, T/C [24]: 84.6%; viability, T/C [25]: 84.9%; viability, T/C [26]: 71.5%; viability, T/C [27]: 79.3%; viability, T/C [28]: 69.9%; viability, T/C [29]: 104%; viability, T/C [30]: 98%
